“Also recorded” adds a separate entry of the source. Like-named read-outs stand apart in the source and are kept apart here.
Legend:
HIV-1LAI = conditions: for IC50 (RT production): CEM cells, 7 days
Method: Cell Free Virus Infection Assay:
(§1) Synthetic peptides were incubated at 37° C. with either 247 TCID50 (for experiment depicted in FIG. 2), or 62 TCID50 (for experiment depicted in FIG. 3) units of HIV-1LAI virus or 25 TCID50 units of HIV-2^NIHZ and CEM CD4^+ cells at peptide concentrations of 0, 0.04, 0.4, 4.0, and 40 μg/ml for 7 days. The resulting reverse transcriptase (RT) activity in counts per minute was determined using the assay described, below, in Section 6.1.5. See, Reed, L. J. et al., 1938, Am. J. Hyg. 27: 493-497 for an explanation of TCID50 calculations.
Reverse Transcriptase Assay:
(§2) The micro-reverse transcriptase (RT) assay was adapted from Goff et al. (Goff, S. et al., 1981, J. Virol. 38:239-248) and Willey et al. (Willey, R. et al., 1988, J. Virol. 62:139-147). Supernatants from virus/cell cultures are adjusted to 1% Triton-X100. A 10 μl sample of supernatant was added to 50 μl of RT cocktail in a 96-well U-bottom microtitre plate and the samples incubated at 37° C. for 90 min. The RT cocktail contained 75 mM KCl, 2 mM dithiothreitol, 5 mM MgCl2, 5 μg/ml poly A (Pharmacia, cat. No. 27-4110-01), 0.25 units/ml oligo dT (Pharmacia, cat. No. 27-7858-01), 0.05% NP40, 50 mM Tris-HCl, pH 7.8, 0.5 μM non-radioactive dTTP, and 10 μCi/ml ^32P-dTTP (Amersham, cat. No. PB. 10167).
After the incubation period, 40 μl of reaction mixture was applied to a Schleicher and Schuell (S+S) NA45 membrane (or DE81 paper) saturated in 2×SSC buffer (0.3 M NaCl and […] sodium citrate) held in a S+S Minifold over one sheet of GB003 (S+S) filter paper, with partial vacuum applied. Each well of the minifold was washed four times with 200 μl 2×SSC, under full vacuum. The membrane was removed from the minifold and washed 2 more times in a pyrex dish with an excess of 2×SSC. Finally, the membrane was drained on absorbent paper, placed on Whatman #3 paper, covered with Saran wrap, and exposed to film overnight at −70° C.
DP178 (SEQ ID NO:15) was next tested for its ability to block CD-4^+ CEM cell infection by cell-free HIV-1 virus. […]

[1] = Cell proliferation and toxicity assay; format: cell-based; conditions: human, CEM cells
Method: (§3) Cell proliferation and toxicity assay: Approximately 3.8×10^5 CEM cells for each peptide concentration were incubated for 3 days at 37° C. in T25 flasks. Peptides tested were DP178 (SEQ ID NO:15) and DP-116 (SEQ ID NO:1552), as described in FIG. 1. Peptides were synthesized as described, above, in Section 6.1. The concentrations of each peptide used were 0, 2.5, 10, and 40 μg/ml. Cell counts were taken at incubation times of 0, 24, 48, and 72 hours.
(§4) CEM cells were incubated in the presence of varying concentrations of DP178 (SEQ ID NO:15), and DP-116 (SEQ ID NO:1552), a peptide previously shown to be ineffective as an HIV inhibitor (Wild, C. et al., 1992, Proc. Natl. Acad. Sci. USA 89:10,537-10,541). Additionally, cells were incubated in the absence of either peptide.

HIV-1IIIB [2] = format: cell-based; conditions: for IC90: HIV-1 induced membrane fusion, read-out: Cell Fusion (IC90)
Method: Cell Fusion Assays For Anti-HIV Activity:
Cell fusion assays were performed as previously described (Matthews et al., 1987, Proc. Natl. Acad. Sci. USA 84: […]). CEM cells (7×10^4) were incubated with HIV-1IIIB chronically infected CEM cells (10^4) in 96-well flat-bottomed half-area plates (Costar) in 100 μl culture medium. Peptide and fusion proteins at various concentrations in 10 μl culture medium were incubated with the cell mixtures at 37° C. for 24 hours. Multinucleated syncytia were estimated with microscopic examination.

HIV-1IIIB [3] = test system: HIV-1IIIB
[4] = molecular target: T1, DP107-like domain of the RSV F1-protein (MF5.1 fusion protein) (Human respiratory syncytial virus A, UniProt P03420); experiment: biochemical; format: binding
T1 construct: made in house
T1 sequence (P03420 142-302): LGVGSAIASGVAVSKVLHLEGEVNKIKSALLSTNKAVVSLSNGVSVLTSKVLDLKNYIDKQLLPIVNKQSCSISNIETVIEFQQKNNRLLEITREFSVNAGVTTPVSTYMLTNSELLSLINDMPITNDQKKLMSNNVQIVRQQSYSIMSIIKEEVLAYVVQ
Method: (§5) After incubation and washing, unbound Fab-d is removed from the plates and bound Fab-d is quantitated. A no-inhibitor control should also be conducted.
(§6) Such an assay takes advantage of accepted radioligand and receptor binding principles. (See, for example, Yamamura, H. I. et al., 1985, “Neurotransmitter Receptor Binding”, 2nd ed., Raven Press, NY.) As above, M41Δ78 is immobilized onto a solid support such as a microtiter well. […] Specific binding to M41Δ78 is defined as the difference of the binding of the labeled DP178 preparation in the microtiter wells (totals) and the binding in identical wells containing, in addition, excess unlabeled DP178 (nonspecifics).
Specifically, the DNA sequence corresponding amino acid residues 142-302 of the RSV F1 protein was amplified by PCR and cloned into the Xmn I site of the expression vector pMal-p2 (New England Biolab) to give MF5.1. These amino acid residues correspond to the extracellular domain of the RSV F1 protein including its DP107 region but excluding the DP178 region.
Cell fusion assays were performed with each of the peptides as described in Section 17 above.

[5] = test system: HIV-1 (HIV-1LAI, HIV-1MN, HIV-1RF, HIV-1SF2); format: cell-based
Method: Approximately 7×10^4 Molt cells were incubated with 1×10^4 CEM cells chronically infected with the HIV-1LAI virus in 96-well plates (one-half area cluster plates; Costar, Cambridge, Mass.) in a final volume of 100 μl culture medium as previously described (Matthews, T. J. et al., 1987, Proc. Natl. Acad. Sci. USA 84: 5424-5428). Peptide inhibitors were added in a volume of 10 μl and the cell mixtures were incubated for 24 hr. at 37° C. At that time, multinucleated giant cells were estimated by microscopic examination at a 40× magnification which allowed visualization of the entire well in a single field.
The initial screen for antiviral activity assayed peptides' ability to block syncytium formation induced by overnight co-cultivation of uninfected Molt 4 cells with chronically HIV-1 infected CEM cells. […] In the first of these experiments, serial DP178 (SEQ ID NO:15) peptide concentrations between 10 μg/ml and 12.5 ng/ml were tested for blockade of the cell fusion process. For these experiments, CEM cells chronically infected with either HIV-1LAI, HIV-1MN, HIV-1RF, or HIV-1SF2 virus were cocultivated overnight with uninfected Molt 4 cells.
The next series of experiments involved the preparation and testing of a DP178 (SEQ ID NO:15) homolog for its ability to inhibit HIV-1-induced syncytia formation.
(§7) The next series of experiments involved a comparison of DP178 (SEQ ID NO:15) HIV-1 and HIV-2 inhibitory activity.

HIV-2 = experiment: Cell fusion assay: HIV-2 mediated syncytia formation; format: cell-based
Excerpt: as §7

HIV-2NIHZ = experiment: Cell free virus infection assay (RT production, CEM cells); format: cell-based
Method: as §1
as §2, with “10167). […]” for “10167).”

[6] = test system: Fab-d (human recombinant Fab); experiment: ELISA analysis of Fab-d binding / DP178 binding to the leucine zipper motif of gp41; conditions: reagent alone
Method: ELISA Analysis of DP178 Binding to the Leucine Zipper Motif of gp41:
Each well was washed three times with distilled water then blocked with 3% bovine serum albumin (BSA) for 2 hours. After blocking, peptides with 0.5% BSA in TBST (40 mM Tris-HCl pH7.5, 150 mM NaCl, 0.05% Tween 20) were added to the ELISA plates and incubated at room temperature for 1 hour. After washing three times with TBST, Fab-d was added at a concentration of 10 ng/ml with 0.5% BSA in TBST. The plates were washed three times with TBST after incubation at room temperature for 1 hour. Horseradish peroxidase (HRP) conjugated goat antihuman Fab antiserum at a 2000 fold dilution in TBST with 0.5% BSA was added to each well and incubated at room temperature for 45 minutes. The plates were then washed four times with TBST. The peroxidase substrate o-phenylene diamine (2.5 mg/ml) and 0.15% H2O2 were added to develop the color. The reaction was stopped with an equal volume of 4.5 N H2SO4 after incubation at room temperature for 10 minutes. The optical density of the stopped reaction mixture was measured with a micro plate reader (Molecular Design) at 490 nm.

CEM cells = experiment: Cell proliferation and toxicity assay; format: cell-based
Method: as §3, §4

[7] = molecular target: T2, M41Δ178 fusion protein (DP107 domain of HIV gp41) (Human immunodeficiency virus type 1 group M subtype B, UniProt P03377); experiment: biochemical; format: binding, HIV-1
T2 construct: made by cloning the DNA fragment corresponding to gp41 amino acids 540-642 into the Xmn I site of pMal-p2; made in house
T2 sequence (P03377 540-642, stated change not applied): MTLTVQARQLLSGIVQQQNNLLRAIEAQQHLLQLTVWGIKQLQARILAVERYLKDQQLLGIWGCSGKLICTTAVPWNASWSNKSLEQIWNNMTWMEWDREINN
Method: as §5, §6

Substance: Ac-LQARILAVERYLKDQQQ-NH2 [DP-116, reference compound]
- inhibition of HIV-1 cell free virus infection (in words) (HIV-1LAI; FIG. 1 legend): negative for inhibition of HIV-1 infection
- viability at 0 h, 2.5 µg/mL ([1]; 2.5 μg/ml, 0 hours): 98%
- viability at 24 h, 2.5 µg/mL ([1]; 2.5 μg/ml, 24 hours): 96%
- viability at 48 h, 2.5 µg/mL ([1]; 2.5 μg/ml, 48 hours): 98%
- viability at 72 h, 2.5 µg/mL ([1]; 2.5 μg/ml, 72 hours): 99%
- viability at 0 h, 10 µg/mL ([1]; 10 μg/ml, 0 hours): 98%
- viability at 24 h, 10 µg/mL ([1]; 10 μg/ml, 24 hours): 95%
- viability at 48 h, 10 µg/mL ([1]; 10 μg/ml, 48 hours): 93%
- viability at 72 h, 10 µg/mL ([1]; 10 μg/ml, 72 hours): 98%
- viability at 0 h, 40 µg/mL ([1]; 40 μg/ml, 0 hours): 98%
- viability at 24 h, 40 µg/mL ([1]; 40 μg/ml, 24 hours): 95%
- viability at 48 h, 40 µg/mL ([1]; 40 μg/ml, 48 hours): 98%
- viability at 72 h, 40 µg/mL ([1]; 40 μg/ml, 72 hours): 97%

Substance: Ac-NNLLRAIEAQQHLLQLTVWGIKQLQARILAVERYLKDQ-NH2 [DP107]
- IC90 (HIV-1IIIB [2]): 1000 nM
- IC90 (HIV-1IIIB [3]; read-out: HIV-infectivity (IC90), HIV-1IIIB): 1000 nM

Substance: Ac-VYPSDEFDASISQVNEKINQALAYIRKADELLHNV-NH2 [Peptide T1091]
- binding affinity relative to T112 [4]: approximately ten-fold less

Substance: Enfuvirtide
- concentration affording complete protection against syncytium formation (lowest concentration tested) ([5]; HIV-1LAI infected CEM + Molt 4 cells): ≤ 12.5 ng/mL
- concentration affording complete protection against syncytium formation (lowest concentration tested) ([5]; HIV-1MN, HIV-1RF, HIV-1SF2 infected CEM + Molt 4 cells): ≤ 100 ng/mL
- concentration completely blocking virus-induced syncytia formation (lowest effective inhibitory concentration) ([5]; HIV-1 mediated CD-4+ cell-cell fusion): 1 to 10 ng/mL
- concentration blocking HIV-1-mediated syncytia formation ([5]; HIV-1 vs HIV-2 comparison, FIG. 5): below 1 ng/ml
- selectivity as inhibitor of HIV-1-mediated over HIV-2 mediated cell fusion (HIV-2): 4 log
- concentration failing to block HIV-2 mediated syncytia formation (HIV-2; FIG. 5): > 10 µg/mL
- IC50 (RT production) (HIV-1LAI; 62 TCID50 HIV-1LAI): about 31 ng/ml
- IC50 (RT production) (HIV-1LAI; 247 TCID50 HIV-1LAI): 0.09 µg/mL
- IC50 for HIV-2NIHZ (in words) (HIV-2NIHZ; 25 TCID50 HIV-2NIHZ, CEM cells, 7 days): much higher IC50
- potency as HIV-1 inhibitor versus HIV-2 inhibitor (HIV-2NIHZ; cell-free infection): two logs more potent
- syncytia in the presence of the peptide (HIV-1IIIB [2]; 10 nM): no observable syncytia
- IC90 (HIV-1IIIB [2]): 1 nM
- Fab-d binding (in words) [6]: failed to bind
- IC90 (HIV-1IIIB [3]; 1IIIB): 80 nM

Substance: enfuvirtide
- % Viability (CEM cells; 2.5 μg/ml, 0 hours): 98%
- % Viability (CEM cells; 2.5 μg/ml, 24 hours): 93%
- % Viability (CEM cells; 2.5 μg/ml, 48 hours): 96%
- % Viability (CEM cells; 2.5 μg/ml, 72 hours): 96%
- % Viability (CEM cells; 10 μg/ml, 0 hours): 98%
- % Viability (CEM cells; 10 μg/ml, 24 hours): 97%
- % Viability (CEM cells; 10 μg/ml, 48 hours): 98%
- % Viability (CEM cells; 10 μg/ml, 72 hours): 98%
- % Viability (CEM cells; 40 μg/ml, 0 hours): 98%
- % Viability (CEM cells; 40 μg/ml, 24 hours): 97%
- % Viability (CEM cells; 40 μg/ml, 48 hours): 95%
- % Viability (CEM cells; 40 μg/ml, 72 hours): 97%
- cytotoxic effects on cells in culture (CEM cells; CEM cells, up to 40 μg/ml, 3 days): non-cytotoxic; also recorded: no cytotoxic effects
- Kd [7]: 10 nM

Source: patent publication US6623741B1, “Methods and compositions for inhibition of membrane fusion-associated events including RSV transmission” (Trimeris, Inc., priority 2000, dated 2003)
